{"source": "patent US10544149B2", "about": "“Bicyclic alkyne derivatives and uses thereof” (Agency for Science, Technology and Research, priority 2013, dated 2020)", "key": {"MNK2": {"target": "MNK2 (Homo sapiens, UniProt Q9HBH9)", "sequence (Q9HBH9 whole entry)": "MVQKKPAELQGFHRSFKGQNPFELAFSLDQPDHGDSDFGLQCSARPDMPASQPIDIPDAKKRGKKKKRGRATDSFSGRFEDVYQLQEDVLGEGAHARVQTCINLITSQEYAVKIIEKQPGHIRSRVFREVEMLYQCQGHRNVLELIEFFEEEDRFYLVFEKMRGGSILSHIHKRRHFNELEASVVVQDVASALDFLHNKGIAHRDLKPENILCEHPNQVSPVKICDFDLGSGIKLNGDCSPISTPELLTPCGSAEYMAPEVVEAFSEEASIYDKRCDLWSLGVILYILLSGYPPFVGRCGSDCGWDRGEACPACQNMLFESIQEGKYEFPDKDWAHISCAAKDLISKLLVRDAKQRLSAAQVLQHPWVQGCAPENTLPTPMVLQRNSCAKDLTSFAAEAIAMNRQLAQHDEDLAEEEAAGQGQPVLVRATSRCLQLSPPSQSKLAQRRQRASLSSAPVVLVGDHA", "experiment": "MNK2 enzymatic assay", "assay_type": "biochemical"}, "[1]": {"test_system": "eIF4e phosphorylation in Hela cell line", "experiment": "eIF4e phosphorylation inhibition in Hela cell line", "assay_type": "cell-based", "conditions": "Homo sapiens, cellular"}, "MNK1": {"target": "MNK1 (Homo sapiens, UniProt Q9BUB5)", "sequence (Q9BUB5 whole entry)": "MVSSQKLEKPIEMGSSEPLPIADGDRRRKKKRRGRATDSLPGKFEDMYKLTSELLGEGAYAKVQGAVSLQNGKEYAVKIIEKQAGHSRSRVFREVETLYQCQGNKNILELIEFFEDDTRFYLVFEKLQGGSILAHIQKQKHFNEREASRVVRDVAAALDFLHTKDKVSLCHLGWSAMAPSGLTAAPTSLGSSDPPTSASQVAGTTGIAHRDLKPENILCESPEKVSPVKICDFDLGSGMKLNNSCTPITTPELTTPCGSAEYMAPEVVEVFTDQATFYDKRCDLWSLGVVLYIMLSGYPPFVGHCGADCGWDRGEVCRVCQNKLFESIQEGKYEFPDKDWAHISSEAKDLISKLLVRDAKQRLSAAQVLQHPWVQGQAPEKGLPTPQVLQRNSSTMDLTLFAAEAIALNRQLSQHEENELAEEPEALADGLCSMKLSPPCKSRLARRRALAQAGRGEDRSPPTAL", "experiment": "MNK1 enzymatic assay", "assay_type": "biochemical"}}}
{"smiles": "O=C(c1ccc(-c2ccc3ncc(C#Cc4ccc5[nH]cnc5c4)n3n2)cc1)N1CCOCC1", "note": "[Example 027, (4-(3-((1H-benzo[d]imidazol-5-yl)ethynyl)imidazo[1,2-b]pyridazin-6-yl)phenyl)(morpholino)methanone]", "values": [{"measurement": "IC50", "setting": "MNK2", "value": "< 0.5", "unit": "µM"}, {"measurement": "IC50", "setting": "[1]", "value": "< 5", "unit": "µM"}, {"measurement": "IC50", "setting": "MNK1", "value": "< 0.5", "unit": "µM"}]}
{"smiles": "CC(=O)Nc1cccc(C#Cc2cnc3ccc(-c4ccc(C(=O)N5CCN(C)CC5)cc4)nn23)c1", "note": "[Example 008, N-(3-((6-(4-(4-methylpiperazine-1-carbonyl)phenyl)imidazo[1,2-b]pyridazin-3-yl)ethynyl)phenyl)acetamide]", "values": [{"measurement": "IC50", "setting": "MNK2", "value": "< 0.5", "unit": "µM"}, {"measurement": "IC50", "setting": "[1]", "value": "< 5", "unit": "µM"}, {"measurement": "IC50", "setting": "MNK1", "value": "< 0.5", "unit": "µM"}]}
{"smiles": "O=C(c1ccc(-c2ccc3ncc(C#Cc4c[nH]c5ncccc45)n3n2)cc1)N1CCOCC1", "note": "[Example 024, (4-(3-((1H-pyrrolo[2,3-b]pyridin-3-yl)ethynyl)imidazo[1,2-b]pyridazin-6-yl)phenyl) (morpholino)methanone]", "values": [{"measurement": "IC50", "setting": "MNK2", "value": "< 0.5", "unit": "µM"}, {"measurement": "IC50", "setting": "[1]", "value": "< 5", "unit": "µM"}, {"measurement": "IC50", "setting": "MNK1", "value": "< 0.5", "unit": "µM"}]}
{"smiles": "O=C(c1ccc(-c2ccc3ncc(C#Cc4cccnc4)n3n2)cc1)N1CCOCC1", "note": "[Example 010, morpholino(4-(3-(pyridin-3-ylethynyl)imidazo[1,2-b]pyridazin-6-yl)phenyl)methanone]", "values": [{"measurement": "IC50", "setting": "MNK2", "value": "< 0.5", "unit": "µM"}, {"measurement": "IC50", "setting": "[1]", "value": "< 5", "unit": "µM"}, {"measurement": "IC50", "setting": "MNK1", "value": "< 0.5", "unit": "µM"}]}
{"smiles": "Cc1ccccc1C(=O)Nc1cc(C#Cc2cnc3ccc(-c4ccc(C(=O)N5CCOCC5)cc4)nn23)ccn1", "note": "[Example 063, 2-methyl-N-(4-((6-(4-(morpholine-4-carbonyl)phenyl)imidazo[1,2-b]pyridazin-3-yl)ethynyl)pyridin-2-yl)benzamide]", "values": [{"measurement": "IC50", "setting": "MNK2", "value": "< 0.5", "unit": "µM"}, {"measurement": "IC50", "setting": "[1]", "value": "< 5", "unit": "µM"}, {"measurement": "IC50", "setting": "MNK1", "value": "< 0.5", "unit": "µM"}]}
{"smiles": "O=C(Nc1cc(C#Cc2cnc3ccc(-c4ccc(C(=O)N5CCOCC5)cc4)nn23)ccn1)c1cccnc1", "note": "[Example 065, N-(4-((6-(4-(morpholine-4-carbonyl)phenyl)imidazo[1,2-b]pyridazin-3-yl)ethynyl)pyridin-2-yl)nicotinamide]", "values": [{"measurement": "IC50", "setting": "MNK2", "value": "< 0.5", "unit": "µM"}, {"measurement": "IC50", "setting": "[1]", "value": "< 5", "unit": "µM"}, {"measurement": "IC50", "setting": "MNK1", "value": "< 0.5", "unit": "µM"}]}
{"smiles": "Cc1ncccc1Nc1cc(C#Cc2cnc3ccc(-c4ccc(C(=O)N5CCNCC5)cc4)cn23)ccn1", "note": "[Example 107, (4-(3-((2-(2-methylpyridin-3-ylamino)pyridin-4-yl)ethynyl)imidazo[1,2-a]pyridin-6-yl)phenyl)(piperazin-1-yl)methanone]", "values": [{"measurement": "IC50", "setting": "MNK2", "value": "< 0.5", "unit": "µM"}, {"measurement": "IC50", "setting": "[1]", "value": "< 5", "unit": "µM"}, {"measurement": "IC50", "setting": "MNK1", "value": "< 0.5", "unit": "µM"}]}
{"smiles": "Cc1c(N)cccc1Nc1cc(C#Cc2cnc3ccc(-c4ccc(C(=O)N5CCNCC5)cc4)cn23)ccn1", "note": "[Example 102, (4-(3-((2-(3-amino-2-methylphenylamino)pyridin-4-yl)ethynyl)imidazo[1,2-a]pyridin-6-yl)phenyl) (piperazin-1-yl)methanone]", "values": [{"measurement": "IC50", "setting": "MNK2", "value": "< 0.5", "unit": "µM"}, {"measurement": "IC50", "setting": "[1]", "value": "< 5", "unit": "µM"}, {"measurement": "IC50", "setting": "MNK1", "value": "< 0.5", "unit": "µM"}]}
{"smiles": "O=C(c1ccc(-c2ccc3ncc(C#Cc4ccnc5[nH]ccc45)n3n2)cc1)N1CCOCC1", "note": "[Example 033, (4-(3-((1H-pyrrolo[2,3-b]pyridin-4-yl)ethynyl)imidazo[1,2-b]pyridazin-6-yl)phenyl) (morpholino)methanone]", "values": [{"measurement": "IC50", "setting": "MNK2", "value": "< 0.5", "unit": "µM"}, {"measurement": "IC50", "setting": "[1]", "value": "< 5", "unit": "µM"}, {"measurement": "IC50", "setting": "MNK1", "value": "< 0.5", "unit": "µM"}]}
{"smiles": "Cc1cccc(Nc2cc(C#Cc3cnc4ccc(-c5ccc(C(=O)N6CCOCC6)cc5)nn34)ccn2)c1", "note": "[Example 057, morpholino(4-(3-((2-(m-tolylamino)pyridin-4-yl)ethynyl)imidazo[1,2-b]pyridazin-6-yl)phenyl)methanone]", "values": [{"measurement": "IC50", "setting": "MNK2", "value": "< 0.5", "unit": "µM"}, {"measurement": "IC50", "setting": "[1]", "value": "< 5", "unit": "µM"}, {"measurement": "IC50", "setting": "MNK1", "value": "< 0.5", "unit": "µM"}]}
{"smiles": "O=C(c1ccc(-c2ccc3ncc(C#Cc4ccnc5[nH]ccc45)n3n2)cc1)N1CCNCC1", "note": "[Example 045, (4-(3-((1H-pyrrolo[2,3-b]pyridin-4-yl)ethynyl)imidazo[1,2-b]pyridazin-6-yl)phenyl)(piperazin-1-yl) methanone]", "values": [{"measurement": "IC50", "setting": "MNK2", "value": "< 0.5", "unit": "µM"}, {"measurement": "IC50", "setting": "[1]", "value": "< 5", "unit": "µM"}, {"measurement": "IC50", "setting": "MNK1", "value": "< 0.5", "unit": "µM"}]}
